In patent publication US9688654B2, “Compounds inhibiting leucine-rich repeat kinase enzyme activity” (Merck Sharp & Dohme Corp., priority 2013, dated 2017) one finds IC50 and inhibition data, which are given here for 4 molecules.

Molecules are shown by their SMILES.

What all share (assay type): biochemical
Experiment [1] concerns the target T1, LRRK2 (G2019S mutation, GST-LRRK2 (amino acids 970-2527)) (Homo sapiens, UniProt Q5S007, G2019S).
T1 construct: GST-LRRK2 (amino acids 970-2527); GST (N); purchased Life Technologies Corporation
The experiment can be described thus: LRRK2 Km ATP LanthaScreen Assay. The conditions noted are these: mean IC50. As to the method: Unless otherwise noted, all LRRK2 IC50 data presented in tables refers to the LRRK2 Km ATP LanthaScreen™ Assay that is described in the Biological Assay section.
(§1) The data presented for the 5 mM and Km ATP LanthaScreen™ Assay represents mean IC50 values based on several test results and may have reasonable. deviations depending on the specific conditions and reagents used. Reagents for the LRRK2 5 mM and Km ATP LanthaScreen™ Assay were purchased from Life Technologies Corporation.
• a) 400 nl of a 1:2.15 serial dilution of test compound (98 μM top assay concentration) is spotted via Labcyte Echo to certain wells in a 384 well black, untreated plate. Control wells contain 400 nl of either DMSO or 400 nl of a known inhibitor in DMSO. • b) 10 μl of a 2.5 nM LRRK2 (G2019S mutation, GST-LRRK2 (amino acids 970-2527)) enzyme solution in 1× assay buffer (50 mM Tris pH 8.5, 10 mM MgCl2, 0.01% Brij-35, 1.0 mM EGTA, 2 mM DTT, 0.05 mM NaVO4) is added to all wells. • c) A 30 minute room temperature incubation is followed by addition of 10 μl […]) After a 35 minute room temperature incubation, 20 μl of TR-FRET Dilution Buffer (Invitrogen PV3756B) containing 4 nM Tb-labeled anti-phospho LRRKtide antibody and 20 mM EDTA is added to all wells. • e) Plates are incubated at room temperature for 1 hour and read on an Envision™ multi-mode plate reader with LanthaScreen™ settings. Results are analysed using Assay Data Analyzer. […] Results are analysed using Assay Data Analyzer.

The target of experiment [2] is T1, LRRK2 (G2019S mutation, GST-LRRK2 (amino acids 970-2527)). The experiment is described as follows: LRRK2 5 mM ATP LanthaScreen Assay. The note with it: mean IC50. On the procedure:
as §1
LRRK2 5 mM ATP LanthaScreen™ Assay
• a) 400 nl of a 1:2.15 serial dilution of test compound (98 μM top assay concentration) is spotted via Labcyte Echo to certain wells in a 384 well black, untreated plate. Control wells contain 400 nl of either DMSO or 400 nl of a known inhibitor in DMSO. • b) 10 μl of a 2.5 nM LRRK2 (G2019S mutation, GST-LRRK2 (amino acids 970-2527)) enzyme solution in 1× assay buffer (50 mM Tris pH 8.5, 10 mM MgCl2, 0.01% Brij-35, 1.0 mM EGTA, 2 mM DTT, 0.05 mM NaVO4) is added to all wells. • c) A 30 minute room temperature incubation is followed by addition of 10 μl of 800 nM fluorescein labeled LRRKtide peptide substrate and 10 mM ATP solution in 1× assay buffer to all wells. • d) After a 35 minute room temperature incubation, 20 μl of TR-FRET Dilution Buffer (Invitrogen PV3756B) containing 4 nM Tb-labeled anti-phospho LRRKtide antibody and 20 mM EDTA is added to all wells. • e) Plates are incubated at room temperature for 1 hour and read on an Envision™ multi-mode plate reader with LanthaScreen™ settings. Results are analysed using Assay Data Analyzer. […] Results are analysed using Assay Data Analyzer.
Background: Time-resolved FRET reads energy transfer from a long-lived donor to a nearby acceptor.

The target of experiment [3] is T2, CDK1/cyclin B (Homo sapiens, UniProt P06493).
T2 construct: purchased Life Technologies Corporation
T2 sequence (P06493 whole entry): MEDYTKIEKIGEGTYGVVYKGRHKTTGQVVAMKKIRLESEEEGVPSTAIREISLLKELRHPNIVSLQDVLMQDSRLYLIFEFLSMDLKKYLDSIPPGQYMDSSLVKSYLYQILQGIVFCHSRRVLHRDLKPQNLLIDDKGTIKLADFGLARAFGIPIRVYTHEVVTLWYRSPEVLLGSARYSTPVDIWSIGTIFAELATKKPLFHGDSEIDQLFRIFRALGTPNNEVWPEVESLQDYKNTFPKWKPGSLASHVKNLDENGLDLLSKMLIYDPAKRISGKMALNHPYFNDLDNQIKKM
T2 sequence (P14635 whole entry partner): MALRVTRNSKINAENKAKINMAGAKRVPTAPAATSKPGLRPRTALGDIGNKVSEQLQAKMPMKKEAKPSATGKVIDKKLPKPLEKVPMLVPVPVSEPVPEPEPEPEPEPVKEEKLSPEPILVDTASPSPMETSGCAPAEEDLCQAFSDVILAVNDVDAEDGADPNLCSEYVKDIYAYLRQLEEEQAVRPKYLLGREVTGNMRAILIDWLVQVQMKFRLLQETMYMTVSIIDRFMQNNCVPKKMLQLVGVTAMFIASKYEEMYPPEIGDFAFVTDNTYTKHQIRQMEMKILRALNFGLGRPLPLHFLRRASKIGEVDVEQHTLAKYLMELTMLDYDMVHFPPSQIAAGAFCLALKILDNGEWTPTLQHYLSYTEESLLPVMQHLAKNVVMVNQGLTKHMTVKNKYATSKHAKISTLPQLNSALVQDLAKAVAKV
The experiment is described as follows: Kinase selectivity, Z'-LYTE platform. The conditions noted are these: 1 micromolar compound, read-out: percent inhibition CDK1/cyclin B.

The target in experiment [4] is T3, DYRK1A (Homo sapiens, UniProt Q13627).
T3 construct: purchased Life Technologies Corporation
The experiment can be described thus: Kinase selectivity, Z'-LYTE platform. The conditions noted are these: 1 micromolar compound, read-out: percent inhibition DYRK1A.

The target in experiment [5] is T4, MAPK8 (JNK1) (Homo sapiens, UniProt P45983).
T4 construct: purchased Life Technologies Corporation
T4 sequence (P45983 whole entry): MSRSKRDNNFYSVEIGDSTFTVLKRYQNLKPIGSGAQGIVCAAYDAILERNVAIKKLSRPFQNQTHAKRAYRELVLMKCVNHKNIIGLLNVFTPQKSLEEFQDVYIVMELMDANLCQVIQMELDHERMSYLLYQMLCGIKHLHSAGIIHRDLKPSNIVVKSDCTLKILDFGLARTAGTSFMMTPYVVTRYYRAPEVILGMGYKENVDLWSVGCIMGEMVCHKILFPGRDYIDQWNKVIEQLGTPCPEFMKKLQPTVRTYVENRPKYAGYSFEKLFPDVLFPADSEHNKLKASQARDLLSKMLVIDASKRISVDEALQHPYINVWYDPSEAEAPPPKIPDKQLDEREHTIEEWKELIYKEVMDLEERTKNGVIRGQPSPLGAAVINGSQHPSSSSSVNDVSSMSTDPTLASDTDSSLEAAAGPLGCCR
The experiment can be described thus: Kinase selectivity, Z'-LYTE platform. The conditions noted are these: 1 micromolar compound, read-out: percent inhibition MAPK8 (JNK1).

The target in experiment [6] is T5, CHEK2 (CHK2) (Homo sapiens, UniProt O96017).
T5 construct: purchased Life Technologies Corporation
T5 sequence (O96017 whole entry): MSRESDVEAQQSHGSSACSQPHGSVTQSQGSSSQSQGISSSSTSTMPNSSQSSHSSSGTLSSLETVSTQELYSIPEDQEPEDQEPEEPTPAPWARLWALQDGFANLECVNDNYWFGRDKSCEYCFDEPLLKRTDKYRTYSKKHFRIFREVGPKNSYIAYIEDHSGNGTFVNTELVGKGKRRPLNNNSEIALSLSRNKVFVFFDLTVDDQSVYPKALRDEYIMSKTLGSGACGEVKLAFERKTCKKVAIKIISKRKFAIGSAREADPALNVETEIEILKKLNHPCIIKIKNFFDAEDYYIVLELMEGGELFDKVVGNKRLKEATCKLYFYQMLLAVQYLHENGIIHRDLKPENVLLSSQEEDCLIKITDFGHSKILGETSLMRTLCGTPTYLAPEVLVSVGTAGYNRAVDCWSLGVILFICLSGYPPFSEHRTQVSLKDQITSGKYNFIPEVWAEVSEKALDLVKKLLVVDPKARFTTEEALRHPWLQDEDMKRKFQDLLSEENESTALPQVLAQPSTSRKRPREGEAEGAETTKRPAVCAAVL
The experiment is described as follows: Kinase selectivity, Z'-LYTE platform. The conditions noted are these: 1 micromolar compound, read-out: percent inhibition CHEK2 (CHK2).

Experiment [7] concerns the target T6, BRAF V599E (Homo sapiens, UniProt P15056, V600E).
T6 construct: purchased Life Technologies Corporation
The experiment can be described thus: Kinase selectivity, Z'-LYTE platform. The conditions noted are these: 1 micromolar compound, read-out: percent inhibition BRAF V599E.

Experiment [8] deals with T7, CLK2 (Homo sapiens, UniProt P49760).
T7 construct: purchased Life Technologies Corporation
The experiment is described as follows: Kinase selectivity, Z'-LYTE platform. The conditions noted are these: 1 micromolar compound, read-out: percent inhibition CLK2.

Experiment [9] deals with T8, AURKB (Aurora B) (Homo sapiens, UniProt Q96GD4).
T8 construct: purchased Life Technologies Corporation
T8 sequence (Q96GD4 whole entry): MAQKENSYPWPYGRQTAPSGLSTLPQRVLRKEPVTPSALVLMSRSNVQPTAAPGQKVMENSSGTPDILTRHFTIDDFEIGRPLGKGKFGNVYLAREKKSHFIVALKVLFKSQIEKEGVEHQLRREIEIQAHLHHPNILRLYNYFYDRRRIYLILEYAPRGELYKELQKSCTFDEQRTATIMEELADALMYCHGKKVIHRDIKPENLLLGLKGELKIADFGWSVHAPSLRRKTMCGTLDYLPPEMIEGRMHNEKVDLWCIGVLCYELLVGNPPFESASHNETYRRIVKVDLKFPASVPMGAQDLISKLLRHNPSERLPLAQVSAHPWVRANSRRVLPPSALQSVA
The experiment can be described thus: Kinase selectivity, Z'-LYTE platform. The note with it: 1 micromolar compound, read-out: percent inhibition AURKB (Aurora B).

In experiment [10] the target is T9, IRAK1 (Homo sapiens, UniProt P51617).
T9 construct: purchased Life Technologies Corporation
The experiment is described as follows: Kinase selectivity, Adapta platform. The conditions noted are these: 1 micromolar compound, read-out: percent inhibition IRAK1.

Experiment [11] has as its target T10, JAK3 (Homo sapiens, UniProt P52333).
T10 construct: purchased Life Technologies Corporation
T10 sequence (P52333 1-1124): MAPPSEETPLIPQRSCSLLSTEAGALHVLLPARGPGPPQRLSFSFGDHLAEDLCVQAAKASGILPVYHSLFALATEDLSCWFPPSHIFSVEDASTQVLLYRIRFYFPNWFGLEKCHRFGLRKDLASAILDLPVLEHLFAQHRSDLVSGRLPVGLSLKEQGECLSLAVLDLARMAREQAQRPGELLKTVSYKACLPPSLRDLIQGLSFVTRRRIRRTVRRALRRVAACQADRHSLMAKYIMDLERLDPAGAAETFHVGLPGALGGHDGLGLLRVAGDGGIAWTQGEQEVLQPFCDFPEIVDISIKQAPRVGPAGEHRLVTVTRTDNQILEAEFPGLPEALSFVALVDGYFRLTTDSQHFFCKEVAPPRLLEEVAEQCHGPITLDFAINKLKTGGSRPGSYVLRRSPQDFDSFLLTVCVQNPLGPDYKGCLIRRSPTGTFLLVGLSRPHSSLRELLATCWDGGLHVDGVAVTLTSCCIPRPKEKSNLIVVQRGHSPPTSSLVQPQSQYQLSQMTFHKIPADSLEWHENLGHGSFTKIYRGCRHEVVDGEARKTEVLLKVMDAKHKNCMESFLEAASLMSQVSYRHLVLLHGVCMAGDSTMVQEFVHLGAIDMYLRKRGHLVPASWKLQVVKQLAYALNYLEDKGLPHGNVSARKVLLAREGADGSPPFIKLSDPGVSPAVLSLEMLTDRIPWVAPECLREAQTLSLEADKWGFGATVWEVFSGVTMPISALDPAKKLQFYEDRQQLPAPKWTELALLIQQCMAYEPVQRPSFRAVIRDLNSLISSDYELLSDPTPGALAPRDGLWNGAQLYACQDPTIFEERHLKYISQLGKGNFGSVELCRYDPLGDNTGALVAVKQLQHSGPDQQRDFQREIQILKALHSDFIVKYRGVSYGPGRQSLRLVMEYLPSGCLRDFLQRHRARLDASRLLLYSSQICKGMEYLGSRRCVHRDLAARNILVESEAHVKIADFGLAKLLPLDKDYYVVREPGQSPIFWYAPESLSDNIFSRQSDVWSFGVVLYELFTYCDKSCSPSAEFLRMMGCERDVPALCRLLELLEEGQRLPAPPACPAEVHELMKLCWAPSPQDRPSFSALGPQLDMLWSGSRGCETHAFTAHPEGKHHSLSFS
The experiment can be described thus: Kinase selectivity, Z'-LYTE platform. The note with it: 1 micromolar compound, read-out: percent inhibition JAK3.

Experiment [12] addresses T11, MAPK1 (ERK2) (Homo sapiens, UniProt P28482).
T11 construct: purchased Life Technologies Corporation
The experiment can be described thus: Kinase selectivity, Z'-LYTE platform. The conditions noted are these: 1 micromolar compound, read-out: percent inhibition MAPK1 (ERK2).

T1 sequence (Q5S007 970-2527 G2019S): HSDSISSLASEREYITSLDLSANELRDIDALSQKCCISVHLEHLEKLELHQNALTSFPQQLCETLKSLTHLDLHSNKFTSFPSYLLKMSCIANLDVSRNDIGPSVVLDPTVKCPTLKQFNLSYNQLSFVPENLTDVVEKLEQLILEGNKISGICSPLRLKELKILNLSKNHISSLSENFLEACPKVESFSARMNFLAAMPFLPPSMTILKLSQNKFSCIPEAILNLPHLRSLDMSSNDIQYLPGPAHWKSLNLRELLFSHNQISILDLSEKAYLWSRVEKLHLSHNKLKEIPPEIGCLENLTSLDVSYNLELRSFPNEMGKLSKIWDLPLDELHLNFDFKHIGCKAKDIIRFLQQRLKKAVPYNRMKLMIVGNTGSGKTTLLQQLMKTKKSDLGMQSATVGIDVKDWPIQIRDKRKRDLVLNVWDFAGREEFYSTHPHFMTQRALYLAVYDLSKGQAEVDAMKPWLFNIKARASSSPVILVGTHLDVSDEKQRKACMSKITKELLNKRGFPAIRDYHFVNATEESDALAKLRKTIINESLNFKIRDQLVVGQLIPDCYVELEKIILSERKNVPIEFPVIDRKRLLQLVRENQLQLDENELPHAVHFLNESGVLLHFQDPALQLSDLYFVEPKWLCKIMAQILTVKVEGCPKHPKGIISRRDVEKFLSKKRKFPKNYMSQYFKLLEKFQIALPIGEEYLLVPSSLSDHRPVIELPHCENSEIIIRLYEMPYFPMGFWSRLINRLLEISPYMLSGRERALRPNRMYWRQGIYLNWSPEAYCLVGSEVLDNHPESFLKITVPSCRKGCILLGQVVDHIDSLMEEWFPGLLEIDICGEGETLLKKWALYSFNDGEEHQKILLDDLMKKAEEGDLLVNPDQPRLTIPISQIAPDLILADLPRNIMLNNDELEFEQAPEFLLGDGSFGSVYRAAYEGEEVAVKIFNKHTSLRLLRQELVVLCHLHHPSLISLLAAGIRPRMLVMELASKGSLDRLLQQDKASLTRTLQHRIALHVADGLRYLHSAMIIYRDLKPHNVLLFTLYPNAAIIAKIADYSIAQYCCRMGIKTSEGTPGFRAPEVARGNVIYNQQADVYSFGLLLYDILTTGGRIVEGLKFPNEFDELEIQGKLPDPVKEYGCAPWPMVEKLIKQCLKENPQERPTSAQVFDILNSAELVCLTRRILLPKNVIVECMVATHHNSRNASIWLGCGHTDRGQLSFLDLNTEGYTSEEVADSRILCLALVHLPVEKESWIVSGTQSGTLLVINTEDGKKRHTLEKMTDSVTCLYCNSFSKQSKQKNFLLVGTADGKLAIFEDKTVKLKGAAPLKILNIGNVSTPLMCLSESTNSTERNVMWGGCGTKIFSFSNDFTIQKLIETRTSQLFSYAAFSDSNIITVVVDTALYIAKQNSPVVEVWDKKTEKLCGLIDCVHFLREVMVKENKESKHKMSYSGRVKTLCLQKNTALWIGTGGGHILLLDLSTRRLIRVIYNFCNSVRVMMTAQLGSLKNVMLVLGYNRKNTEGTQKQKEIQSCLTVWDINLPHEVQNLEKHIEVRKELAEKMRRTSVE
T11 sequence (P28482 whole entry): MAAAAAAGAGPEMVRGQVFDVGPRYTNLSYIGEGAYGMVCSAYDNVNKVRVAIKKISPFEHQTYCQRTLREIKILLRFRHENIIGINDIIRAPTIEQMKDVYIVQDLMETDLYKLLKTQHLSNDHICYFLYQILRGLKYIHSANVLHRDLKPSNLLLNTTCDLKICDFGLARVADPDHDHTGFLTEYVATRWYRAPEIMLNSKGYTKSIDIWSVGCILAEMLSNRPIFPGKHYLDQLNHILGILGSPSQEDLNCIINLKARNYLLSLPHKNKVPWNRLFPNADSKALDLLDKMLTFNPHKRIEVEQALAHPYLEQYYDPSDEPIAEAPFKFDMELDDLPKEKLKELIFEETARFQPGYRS
T6 sequence (P15056 whole entry V600E): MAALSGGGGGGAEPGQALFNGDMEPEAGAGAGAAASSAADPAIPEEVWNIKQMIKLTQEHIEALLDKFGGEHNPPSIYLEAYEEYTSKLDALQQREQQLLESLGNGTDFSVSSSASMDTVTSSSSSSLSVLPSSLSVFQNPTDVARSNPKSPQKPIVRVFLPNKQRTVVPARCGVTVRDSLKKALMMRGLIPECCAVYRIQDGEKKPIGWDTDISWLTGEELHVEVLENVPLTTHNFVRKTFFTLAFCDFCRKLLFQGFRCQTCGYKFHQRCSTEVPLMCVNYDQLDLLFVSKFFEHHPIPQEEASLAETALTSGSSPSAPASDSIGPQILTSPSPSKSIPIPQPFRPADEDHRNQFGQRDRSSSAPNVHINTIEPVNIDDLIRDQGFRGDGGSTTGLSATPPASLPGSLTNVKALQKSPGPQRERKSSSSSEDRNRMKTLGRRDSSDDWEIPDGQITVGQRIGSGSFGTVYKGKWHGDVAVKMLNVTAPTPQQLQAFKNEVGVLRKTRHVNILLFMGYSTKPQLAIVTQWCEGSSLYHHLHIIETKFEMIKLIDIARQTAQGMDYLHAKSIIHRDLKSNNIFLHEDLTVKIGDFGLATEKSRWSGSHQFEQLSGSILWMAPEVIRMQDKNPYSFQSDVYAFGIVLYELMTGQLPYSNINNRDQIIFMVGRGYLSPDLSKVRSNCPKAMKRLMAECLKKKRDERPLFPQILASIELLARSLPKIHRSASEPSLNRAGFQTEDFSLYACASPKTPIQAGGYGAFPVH

`c1cc(-c2n[nH]c3ccc(OC4CC4)cc23)cc(N2CCN(C3CC3)CC2)n1` [Example 26]: the concentration for half-maximal inhibition (IC50) in [1] worked out at 12 nM; in experiment [2], 300 nM.
In the case of `c1cc(-c2n[nH]c3ccc(OC4CC4)cc23)cc(N2CCC2)n1` [Example 9], the figures for the IC50 in experiment [1] and in [2] were 16 nM and 225 nM, respectively.
Take `C[C@H]1CN(c2cc(-c3n[nH]c4ccc(OC5(C)CC5)cc34)ccn2)CCO1` [Example 28]: the inhibition at 1 µM turned out to be 25% in experiment [3]; 2% in experiment [4]; 58% in [5]; 4% in experiment [6]; 19% in [7]; 42% in experiment [8]. Also, the inhibition at 1 µM in experiment [9] was 11%; in [10], -5%; in [11], 49%; in experiment [12] it was 23%. This molecule came in with an IC50 in experiment [1] of 0.6 nM.
With `CCc1nnc2n1CCN(c1cc(-c3n[nH]c4ccc(OC5CC5)cc34)ccn1)C2` [Example 23], the half-maximal inhibitory concentration (IC50) in experiment [1] was determined as 12 nM; in experiment [2], 297 nM.

For orientation: IC50 means the concentration that inhibits the measured activity by half. Higher therefore signals weaker potency.
